Measurements: US11607426B2, “Method of targeting oncolytic viruses to tumors” (UNIVERSITY OF SOUTH FLORIDA, priority 2016, dated 2023)
Where two headings read alike, the source gives them in different places.

Columns and labels:
PBMCs = assay type: cell-based, human
RSV = RSV infection (viral titers) in 1-MT or vitamin K3 treated human MSCs; assay type: cell-based, respiratory syncytial virus; details: human MSCs treated with 1-MT or vitamin K3
hMSCs = test: Boyden chamber invasion assay, hMSC migration towards LLC1 cells; details: media containing 1MT, 24 hours coculture
Method: Migrated MSCs were counted after 24 h.
To test the effect of 1-MT on the migratory capacity of hMSCs the inventors used a Boyden chamber invasion assay with Lewis lung carcinoma (LLC1) cells in the bottom chamber to produce trophic factors. MSCs were seeded on the top of a matrigel layer above a PET membrane with 8.0 μm pores (BD Bioscience) and treated with control MSC media or media containing 1MT. Cells were cocultured for 24 hours before fixation in 4% paraformaldehyde in PBS. Upper matrigel layer was removed by cue tip and migrant cells were visualized and counted by Giemsa staining.

IDO = IDO (Homo sapiens, UniProt P14902); assay type: cell-based; details: RSV-infected MSCs treated with 1 mM 1-MT or 10 μM vitamin K3
Sequence of IDO (P14902 whole entry): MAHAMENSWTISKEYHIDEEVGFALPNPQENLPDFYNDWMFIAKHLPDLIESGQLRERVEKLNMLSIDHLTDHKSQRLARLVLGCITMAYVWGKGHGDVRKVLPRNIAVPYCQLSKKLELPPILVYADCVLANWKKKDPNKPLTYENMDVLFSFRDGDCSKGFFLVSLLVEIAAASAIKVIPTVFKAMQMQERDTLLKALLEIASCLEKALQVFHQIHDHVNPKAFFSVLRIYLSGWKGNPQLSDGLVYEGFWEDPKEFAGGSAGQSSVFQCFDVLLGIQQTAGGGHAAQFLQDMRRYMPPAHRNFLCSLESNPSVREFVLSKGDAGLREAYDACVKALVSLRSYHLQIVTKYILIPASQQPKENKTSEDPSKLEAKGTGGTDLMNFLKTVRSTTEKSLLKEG

Structure (SMILES)	effect on inhibition of PBMC proliferation by RSV-infected MSC conditioned medium (CFSE dye dilution) (PBMCs)	RSV infection as determined by viral titers (RSV)	migration of hMSC towards LLC1 cells (hMSCs)	effect on inhibition of PBMC proliferation by RSV-infected MSC conditioned medium (CFSE dye dilution) (PBMCs; 1 mM 1-MT or 10 μM vitamin K3, PHA, 5 days, flow cytometry)	kynurenine levels (IDO)
Cn1cc(C[C@H](N)C(=O)O)c2ccccc21 [1-MT, 1-methyltryptophan]	abolished the negative effect on PBMC proliferation	did not reduce RSV infection	did not inhibit migration	–	–
CC1=CC(=O)c2ccccc2C1=O [vitamin K3]	–	did not reduce RSV infection	–	abolished the negative effect on PBMC proliferation	reduced kynurenine levels
